According to PubChem BioAssay (NCI):
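Growth conditions: 96-well plates. Treatment: test compound, 48 hours, 5 concentrations. Analysis: linear interpolation between bracketing concentrations; unreached endpoints set to highest concentration. GI50 = concentration required for 50% inhibition of growth. TGI marks complete inhibition of growth.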

Tests used:
Test in all cases: inhibition of tumour cell growth, NCI panel, 48 h
786-0 renal = tested on: 786-0 renal
A498 renal = tested on: A498 renal
A549 NSCLC = tested on: A549 NSCLC
ACHN renal = tested on: ACHN renal
BT-549 breast = tested on: BT-549 breast
CAKI-1 renal = tested on: CAKI-1 renal
CCRF-CEM leukemia = tested on: CCRF-CEM leukemia
COLO 205 colon = tested on: COLO 205 colon
DU-145 prostate = tested on: DU-145 prostate
HCC-2998 colon = tested on: HCC-2998 colon
HCT-116 colon = tested on: HCT-116 colon
HCT-15 colon = tested on: HCT-15 colon
HL-60(TB) leukemia = tested on: HL-60(TB) leukemia
HOP-62 NSCLC = tested on: HOP-62 NSCLC
HOP-92 NSCLC = tested on: HOP-92 NSCLC
HS 578T breast = tested on: HS 578T breast
HT29 colon = tested on: HT29 colon
IGROV1 ovarian = tested on: IGROV1 ovarian
K-562 leukemia = tested on: K-562 leukemia
KM12 colon = tested on: KM12 colon
LOX IMVI melanoma = tested on: LOX IMVI melanoma
M14 melanoma = tested on: M14 melanoma
MALME-3M melanoma = tested on: MALME-3M melanoma
MCF7 breast = tested on: MCF7 breast
MDA-MB-231 breast = tested on: MDA-MB-231 breast
MDA-MB-435 = tested on: MDA-MB-435
MOLT-4 leukemia = tested on: MOLT-4 leukemia
NCI-H226 lung = tested on: NCI-H226 lung
NCI-H23 lung = tested on: NCI-H23 lung
NCI-H460 lung = tested on: NCI-H460 lung
NCI-H522 lung = tested on: NCI-H522 lung
NCI/ADR-RES ovarian = tested on: NCI/ADR-RES ovarian
OVCAR-4 ovarian = tested on: OVCAR-4 ovarian
OVCAR-5 ovarian = tested on: OVCAR-5 ovarian
OVCAR-8 ovarian = tested on: OVCAR-8 ovarian
PC-3 prostate = tested on: PC-3 prostate
RPMI-8226 leukemia = tested on: RPMI-8226 leukemia
RXF 393 renal = tested on: RXF 393 renal
SF-268 CNS = tested on: SF-268 CNS
SF-295 CNS = tested on: SF-295 CNS
SF-539 CNS = tested on: SF-539 CNS
SK-MEL-2 melanoma = tested on: SK-MEL-2 melanoma
SK-MEL-28 melanoma = tested on: SK-MEL-28 melanoma
SK-MEL-5 melanoma = tested on: SK-MEL-5 melanoma
SK-OV-3 ovarian = tested on: SK-OV-3 ovarian
SN12C renal = tested on: SN12C renal
SNB-19 CNS = tested on: SNB-19 CNS
SNB-75 CNS = tested on: SNB-75 CNS
SR leukemia = tested on: SR leukemia
SW-620 colon = tested on: SW-620 colon
T-47D breast = tested on: T-47D breast
TK-10 renal = tested on: TK-10 renal
U251 CNS = tested on: U251 CNS
UACC-257 melanoma = tested on: UACC-257 melanoma
UACC-62 melanoma = tested on: UACC-62 melanoma
UO-31 renal = tested on: UO-31 renal
EKVX NSCLC = tested on: EKVX NSCLC
OVCAR-3 ovarian = tested on: OVCAR-3 ovarian

`O=C(Nc1cccc(-n2cc(-c3ccncc3)c(-c3ccc(O)c(Cl)c3)n2)c1)c1cc(C(F)(F)F)cc(C(F)(F)F)c1` was tested, and the GI50 (786-0 renal) was 3.93 µM, the TGI (786-0 renal) was 18.3 µM and the GI50 (A498 renal) was 9.2 µM. For the same compound, the TGI (A498 renal) was > 50 µM, the GI50 (A549 NSCLC) was 2.41 µM and the TGI (A549 NSCLC) was > 50 µM. The GI50 (ACHN renal) was 2.79 µM, the TGI (ACHN renal) was > 50 µM and the GI50 (BT-549 breast) was 4.34 µM. The TGI (BT-549 breast) was 46.6 µM, the GI50 (CAKI-1 renal) was 2.52 µM and the TGI (CAKI-1 renal) was > 50 µM. For the same compound, the GI50 (CCRF-CEM leukemia) was 2.21 µM, the TGI (CCRF-CEM leukemia) was > 50 µM and the GI50 (COLO 205 colon) was 9.82 µM. The TGI (COLO 205 colon) was 23.5 µM, the GI50 (DU-145 prostate) was 12.6 µM and the TGI (DU-145 prostate) was > 50 µM. For the same compound, the GI50 (HCC-2998 colon) was 3.06 µM, the TGI (HCC-2998 colon) was > 50 µM and the GI50 (HCT-116 colon) was 2.88 µM. The TGI (HCT-116 colon) was > 50 µM, the GI50 (HCT-15 colon) was 2.39 µM and the TGI (HCT-15 colon) was > 50 µM. The GI50 (HL-60(TB) leukemia) was 9.4 µM, the TGI (HL-60(TB) leukemia) was 27.4 µM and the GI50 (HOP-62 NSCLC) was 17.5 µM. The TGI (HOP-62 NSCLC) was > 50 µM, the GI50 (HOP-92 NSCLC) was 0.822 µM and the TGI (HOP-92 NSCLC) was 4.15 µM. The GI50 (HS 578T breast) was 5.19 µM, the TGI (HS 578T breast) was > 50 µM and the GI50 (HT29 colon) was 5.15 µM. For the same compound, the TGI (HT29 colon) was 31.4 µM, the GI50 (IGROV1 ovarian) was 11.2 µM and the TGI (IGROV1 ovarian) was > 50 µM. For the same compound, the GI50 (K-562 leukemia) was 2.57 µM, the TGI (K-562 leukemia) was > 50 µM and the GI50 (KM12 colon) was 2.05 µM. For the same compound, the TGI (KM12 colon) was 12.5 µM, the GI50 (LOX IMVI melanoma) was 1.86 µM and the TGI (LOX IMVI melanoma) was > 50 µM. The GI50 (M14 melanoma) was 3.3 µM, the TGI (M14 melanoma) was > 50 µM and the GI50 (MALME-3M melanoma) was 9.79 µM. The TGI (MALME-3M melanoma) was 41.9 µM, the GI50 (MCF7 breast) was 2.17 µM and the TGI (MCF7 breast) was > 50 µM. For the same compound, the GI50 (MDA-MB-231 breast) was 0.889 µM, the TGI (MDA-MB-231 breast) was 2.17 µM and the GI50 (MDA-MB-435) was 4.43 µM. The TGI (MDA-MB-435) was > 50 µM, the GI50 (MOLT-4 leukemia) was 2.88 µM and the TGI (MOLT-4 leukemia) was > 50 µM. The GI50 (NCI-H226 lung) was 10.3 µM, the TGI (NCI-H226 lung) was > 50 µM and the GI50 (NCI-H23 lung) was 5.15 µM. For the same compound, the TGI (NCI-H23 lung) was > 50 µM, the GI50 (NCI-H460 lung) was 1.9 µM and the TGI (NCI-H460 lung) was > 50 µM. For the same compound, the GI50 (NCI-H522 lung) was 1.56 µM, the TGI (NCI-H522 lung) was 12.3 µM and the GI50 (NCI/ADR-RES ovarian) was 4.72 µM. For the same compound, the TGI (NCI/ADR-RES ovarian) was > 50 µM, the GI50 (OVCAR-4 ovarian) was 3.31 µM and the TGI (OVCAR-4 ovarian) was > 50 µM. For the same compound, the GI50 (OVCAR-5 ovarian) was 8.33 µM, the TGI (OVCAR-5 ovarian) was 37.7 µM and the GI50 (OVCAR-8 ovarian) was 4.88 µM. The TGI (OVCAR-8 ovarian) was > 50 µM, the GI50 (PC-3 prostate) was 2.17 µM and the TGI (PC-3 prostate) was > 50 µM. For the same compound, the GI50 (RPMI-8226 leukemia) was 3.31 µM, the TGI (RPMI-8226 leukemia) was 33.1 µM and the GI50 (RXF 393 renal) was 1.25 µM. For the same compound, the TGI (RXF 393 renal) was 9.1 µM, the GI50 (SF-268 CNS) was 7.26 µM and the TGI (SF-268 CNS) was > 50 µM. It also gave a GI50 (SF-295 CNS) of 2.14 µM, a TGI (SF-295 CNS) of 34.2 µM and a GI50 (SF-539 CNS) of 4.78 µM. The TGI (SF-539 CNS) was 38.9 µM, the GI50 (SK-MEL-2 melanoma) was 9.33 µM and the TGI (SK-MEL-2 melanoma) was 34 µM. For the same compound, the GI50 (SK-MEL-28 melanoma) was 10.3 µM, the TGI (SK-MEL-28 melanoma) was > 50 µM and the GI50 (SK-MEL-5 melanoma) was 4.61 µM. For the same compound, the TGI (SK-MEL-5 melanoma) was 16.9 µM, the GI50 (SK-OV-3 ovarian) was 22.8 µM and the TGI (SK-OV-3 ovarian) was > 50 µM. For the same compound, the GI50 (SN12C renal) was 7.04 µM, the TGI (SN12C renal) was > 50 µM and the GI50 (SNB-19 CNS) was 12.8 µM. For the same compound, the TGI (SNB-19 CNS) was > 50 µM, the GI50 (SNB-75 CNS) was 2.35 µM and the TGI (SNB-75 CNS) was > 50 µM. It also gave a GI50 (SR leukemia) of 1.43 µM, a TGI (SR leukemia) of 5.68 µM and a GI50 (SW-620 colon) of 12.2 µM. The TGI (SW-620 colon) was > 50 µM, the GI50 (T-47D breast) was 2.28 µM and the TGI (T-47D breast) was 30.8 µM. For the same compound, the GI50 (TK-10 renal) was 10.9 µM, the TGI (TK-10 renal) was > 50 µM and the GI50 (U251 CNS) was 2.54 µM. The TGI (U251 CNS) was > 50 µM, the GI50 (UACC-257 melanoma) was 16.1 µM and the TGI (UACC-257 melanoma) was > 50 µM. The GI50 (UACC-62 melanoma) was 10.6 µM, the TGI (UACC-62 melanoma) was > 50 µM and the GI50 (UO-31 renal) was 4.15 µM. For the same compound, the TGI (UO-31 renal) was > 50 µM.
Compound `COc1c(O)cc2c(c1O)C(=O)C1=C(CCCC1)C2=O` has a TGI (786-0 renal) of 49.4 µM, a TGI (A498 renal) of 47.7 µM and a TGI (A549 NSCLC) of 87.3 µM. For the same compound, the TGI (ACHN renal) was 58.4 µM, the TGI (BT-549 breast) was > 100 µM and the TGI (CAKI-1 renal) was 71 µM. It also gave a TGI (CCRF-CEM leukemia) of 10.9 µM, a TGI (COLO 205 colon) of 40.1 µM and a TGI (DU-145 prostate) of 74.3 µM. For the same compound, the TGI (EKVX NSCLC) was 86.6 µM, the TGI (HCC-2998 colon) was 47.7 µM and the TGI (HCT-116 colon) was 43.2 µM. For the same compound, the TGI (HCT-15 colon) was > 100 µM, the TGI (HL-60(TB) leukemia) was 31.9 µM and the TGI (HOP-62 NSCLC) was > 100 µM. The TGI (HOP-92 NSCLC) was 82.7 µM, the TGI (HS 578T breast) was 97.1 µM and the TGI (HT29 colon) was 40 µM. It also gave a TGI (IGROV1 ovarian) of 43.8 µM, a TGI (KM12 colon) of 65.5 µM and a TGI (LOX IMVI melanoma) of 33.6 µM. The TGI (M14 melanoma) was > 100 µM, the TGI (MALME-3M melanoma) was 69.3 µM and the TGI (MCF7 breast) was 80.7 µM. The TGI (MDA-MB-231 breast) was 64.1 µM, the TGI (MDA-MB-435) was > 100 µM and the TGI (MOLT-4 leukemia) was 23 µM. For the same compound, the TGI (NCI-H226 lung) was > 100 µM, the TGI (NCI-H23 lung) was 41.3 µM and the TGI (NCI-H460 lung) was 73.4 µM. For the same compound, the TGI (NCI-H522 lung) was 31.8 µM, the TGI (NCI/ADR-RES ovarian) was 51.5 µM and the TGI (OVCAR-3 ovarian) was > 100 µM. The TGI (OVCAR-4 ovarian) was 95.6 µM, the TGI (OVCAR-5 ovarian) was > 100 µM and the TGI (OVCAR-8 ovarian) was 57.5 µM. The TGI (PC-3 prostate) was 84.5 µM, the TGI (RPMI-8226 leukemia) was 32.6 µM and the TGI (RXF 393 renal) was 45 µM. For the same compound, the TGI (SF-268 CNS) was > 100 µM, the TGI (SF-295 CNS) was 65.2 µM and the TGI (SF-539 CNS) was 44 µM. The TGI (SK-MEL-2 melanoma) was > 100 µM, the TGI (SK-MEL-28 melanoma) was 62 µM and the TGI (SK-MEL-5 melanoma) was 66 µM. The TGI (SK-OV-3 ovarian) was 48.8 µM, the TGI (SN12C renal) was 58.3 µM and the TGI (SNB-19 CNS) was 96.9 µM. For the same compound, the TGI (SR leukemia) was 34.2 µM, the TGI (SW-620 colon) was > 100 µM and the TGI (T-47D breast) was 50.2 µM. For the same compound, the TGI (TK-10 renal) was 74.7 µM, the TGI (U251 CNS) was > 100 µM and the TGI (UACC-257 melanoma) was 81.2 µM. The TGI (UACC-62 melanoma) was 48.8 µM and the TGI (UO-31 renal) was 43.8 µM.
